Results from patent EP4289427A1, “DIHYDRO[1,8]NAPHTHYRIDIN-7-ONE AND PYRIDO[3,2-B][1,4]OXAZIN-3-ONE FOR USE IN TREATING CANCER, AND METASTASES IN PARTICULAR” (Anagenesis Biotechnologies, priority 2022, dated 2023).

Columns and labels:
RD cells = assay: Cytotoxicity assay (CellTiter-Glo 2.0) on RD cells; type: cell-based, Human; settings: for IC50: Homo sapiens; as to Cytotoxicity: test concentration or dose not given here
Procedure, shortened: (§1)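 Viability was measured as ATP-based bioluminescence (CellTiter-Glo 2.0) after compound treatment, with medium and exposure time set per cell line. Relative IC50 values were then calculated.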

HUVECs = assay: Tube formation assay (anti-angiogenic activity); type: cell-based, human; settings: for IC50: Homo sapiens, HUVEC; as to Angiogenesis inhibition: test concentration or dose not given here
Procedure, shortened: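 HUVECs plated at 5000 cells/well on reduced growth factor basement membrane matrix, then exposed to compounds for 16 to 18 hours at 37°C. Cells stained with calcein-AM; tube networks imaged by confocal fluorescence microscopy and quantified.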

4T1 cells = assay: Cytotoxicity assay (CellTiter-Glo 2.0) on 4T1 cells; type: cell-based, Mouse; settings: incubation 2 days; for IC50: Mus musculus, 48 h; as to Cytotoxicity: test concentration or dose not given here
Procedure, shortened: as §1

EoL-1 cells = assay: Cytotoxicity assay (CellTiter-Glo 2.0) on EoL-1 cells; type: cell-based, Human; settings: incubation 1 day; for IC50: Homo sapiens, EOL1, 24 h; as to Cytotoxicity: test concentration or dose not given here
Procedure, shortened: as §1

MDA-MB-231 cells = assay: Cytotoxicity assay (CellTiter-Glo 2.0) on MDA-MB-231 cells; type: cell-based, Human; settings: incubation 3 days; for IC50: Homo sapiens, 72 h; as to Cytotoxicity: test concentration or dose not given here
Procedure, shortened: as §1

[1] = 2 day-treatment, commercial kinase inhibitors
[2] = 4 day-treatment, commercial kinase inhibitors
[3] = 48 h, 2 day-treatment, commercial kinase inhibitors
[4] = 96 h, 4 day-treatment, commercial kinase inhibitors

Row | SMILES | Cytotoxicity (RD cells; 2 day-treatment) | Cytotoxicity (RD cells; 4 day-treatment) | IC50 (RD cells; 48 h, 2 day-treatment) | IC50 (RD cells; 96 h, 4 day-treatment) | IC50 (HUVECs; incubation 16 to 18 hours) | Angiogenesis inhibition (HUVECs; incubation 16 to 18 hours) | IC50 (4T1 cells) | Cytotoxicity (4T1 cells) | IC50 (EoL-1 cells) | Cytotoxicity (EoL-1 cells) | IC50 (MDA-MB-231 cells) | Cytotoxicity (MDA-MB-231 cells) | other results
1 | CSc1cc(Oc2ccnc3c2OCC(=O)N3)ccc1NC(=O)Nc1cc(C(C)(C)C)nn1-c1ccc(CN2CCN(C)CC2)cc1 [Compound 054, 1-[5-tert-butyl-2-[4-[(4-methylpiperazin-1-yl)methyl]phenyl]pyrazol-3-yl]-3-[2-methylsulfanyl-4-[(3-oxo-4H-pyrido[3,2-b][1,4]oxazin-8-yl)oxy]phenyl]urea] | +++ (cytotoxicity ≥ 85%) | +++ (cytotoxicity ≥ 85%) | 1 to 5 µM | 1 to 5 µM | < 0.1 µM | +++ (angiogenesis inhibition ≥ 80%) | 1 to 5 µM | +++ (cytotoxicity ≥ 85%) | 0.001 to 0.01 µM | +++ (cytotoxicity ≥ 85%) | 1 to 5 µM | +++ (cytotoxicity ≥ 85%) | 
2 | CSc1cc(Oc2ccnc3c2CCC(=O)N3)ccc1NC(=O)Nc1cc(C(C)(C)C)nn1-c1ccccc1 [Compound 001, 1-(3-(tert-butyl)-1-phenyl-1H-pyrazol-5-yl)-3-(2-(methylthio)-4-((7-oxo-5,6,7,8-tetrahydro-1,8-naphthyridin-4-yl)oxy)phenyl)urea] | + (20 % ≤ cytotoxicity < 50%) | ++ (50% ≤ cytotoxicity < 85%) | 1 to 5 µM | 1 to 5 µM | < 0.1 µM | +++ (angiogenesis inhibition ≥ 80%) | 1 to 5 µM | +++ (cytotoxicity ≥ 85%) | 0.01 to 0.1 µM | +++ (cytotoxicity ≥ 85%) | 1 to 5 µM | ++ (50% ≤ cytotoxicity < 85%) | 
3 | CC(C)(C)c1cc(NC(=O)Nc2ccc(Oc3ccnc4c3OCC(=O)N4)cc2C(F)(F)F)n(-c2ccc(CN3CCOCC3)cc2)n1 [Compound 043, 1-[5-tert-butyl-2-[4-(morpholinomethyl)phenyl]pyrazol-3-yl]-3-[4-[(3-oxo-4H-pyrido[3,2-b][1,4]oxazin-8-yl)oxy]-2-(trifluoromethyl)phenyl]urea] | + (20 % ≤ cytotoxicity < 50%) | + (20 % ≤ cytotoxicity < 50%) | ≥ 10 µM | ≥ 10 µM | 0.1 to 0.5 µM | +++ (angiogenesis inhibition ≥ 80%) | 1 to 5 µM | +++ (cytotoxicity ≥ 85%) | 0.01 to 0.1 µM | ++ (50% ≤ cytotoxicity < 85%) | 5 to 10 µM | ++ (50% ≤ cytotoxicity < 85%) | 
4 | CSc1cc(Oc2ccnc3c2OCC(=O)N3)ccc1NC(=O)Nc1cc(C(C)(C)C)nn1-c1ccc(C)nc1 [Compound 019, 1-[5-tert-butyl-2-(6-methyl-3-pyridyl)pyrazol-3-yl]-3-[2-methylsulfanyl-4-[(3-oxo-4H-pyrido[3,2-b][1,4]oxazin-8-yl)oxy]phenyl]urea] | ++ (50% ≤ cytotoxicity < 85%) | ++ (50% ≤ cytotoxicity < 85%) | 1 to 5 µM | 1 to 5 µM | < 0.1 µM | +++ (angiogenesis inhibition ≥ 80%) | 1 to 5 µM | +++ (cytotoxicity ≥ 85%) | 0.001 to 0.01 µM | +++ (cytotoxicity ≥ 85%) | 1 to 5 µM | ++ (50% ≤ cytotoxicity < 85%) | 
5 | CNC(=O)c1cc(Oc2ccc(NC(=O)Nc3ccc(Cl)c(C(F)(F)F)c3)cc2)ccn1 [Sorafenib, reference compound] |  |  |  |  |  |  |  |  |  |  |  |  | Cytotoxicity (RD cells; [1]): ++ (50 % ≤ cytotoxicity < 85 %); Cytotoxicity (RD cells; [2]): ++ (50 % ≤ cytotoxicity < 85 %); IC50 (RD cells; [3]): ≥ 10 µM; IC50 (RD cells; [4]): 5 to 10 µM; IC50 (HUVECs; commercial kinase inhibitors): < 0.1 µM; Angiogenesis inhibition (HUVECs; commercial kinase inhibitors): + (50% > angiogenesis inhibition ≥ 20%); IC50 (4T1 cells; commercial kinase inhibitors): 5 to 10 µM; Cytotoxicity (4T1 cells; commercial kinase inhibitors): + (20 % ≤ cytotoxicity < 50 %); IC50 (EoL-1 cells; commercial kinase inhibitors): < 0.001 µM; Cytotoxicity (EoL-1 cells; commercial kinase inhibitors): +++ (cytotoxicity ≥ 85%); IC50 (MDA-MB-231 cells; commercial kinase inhibitors): 5 to 10 µM; Cytotoxicity (MDA-MB-231 cells; commercial kinase inhibitors): +++ (cytotoxicity ≥ 85 %)
6 | CC(C)(C)c1cc(NC(=O)Nc2ccc(Oc3ccnc4c3OCC(=O)N4)cc2C(F)(F)F)n(-c2cccc(F)c2)n1 [Compound 014, 1-[5-tert-butyl-2-(3-fluorophenyl)pyrazol-3-yl]-3-[4-[(3-oxo-4H-pyrido[3,2-b][1,4]oxazin-8-yl)oxy]-2-(trifluoromethyl)phenyl]urea] | + (20 % ≤ cytotoxicity < 50%) | + (20 % ≤ cytotoxicity < 50%) | 5 to 10 µM | ≥ 10 µM | 0.1 to 0.5 µM | +++ (angiogenesis inhibition ≥ 80%) | 1 to 5 µM | +++ (cytotoxicity ≥ 85%) | 0.01 to 0.1 µM | ++ (50% ≤ cytotoxicity < 85%) | 1 to 5 µM | + (20 % ≤ cytotoxicity < 50%) | 
7 | CC(C)(C)c1cc(NC(=O)Nc2ccc(Oc3ccnc4c3OCC(=O)N4)cc2C(F)(F)F)n(-c2cncc(F)c2)n1 [Compound 039, 1-[5-tert-butyl-2-(5-fluoro-3-pyridyl)pyrazol-3-yl]-3-[4-[(3-oxo-4H-pyrido[3,2-b][1,4]oxazin-8-yl)oxy]-2-(trifluoromethyl)phenyl]urea] | ++ (50% ≤ cytotoxicity < 85%) | + (20 % ≤ cytotoxicity < 50%) | 1 to 5 µM | 5 to 10 µM | < 0.1 µM | +++ (angiogenesis inhibition ≥ 80%) | < 1 µM | +++ (cytotoxicity ≥ 85%) | 0.01 to 0.1 µM | ++ (50% ≤ cytotoxicity < 85%) | 1 to 5 µM | ++ (50% ≤ cytotoxicity < 85%) | 
8 | CNC(=O)c1cc(Oc2ccc(NC(=O)Nc3ccc(Cl)c(C(F)(F)F)c3)c(F)c2)ccn1 [Regorafenib, reference compound] |  |  |  |  |  |  |  |  |  |  |  |  | Cytotoxicity (RD cells; [1]): + (20 % ≤ cytotoxicity < 50 %); Cytotoxicity (RD cells; [2]): + (20 % ≤ cytotoxicity < 50 %); IC50 (RD cells; [3]): 5 to 10 µM; IC50 (RD cells; [4]): 1 to 5 µM; IC50 (HUVECs; commercial kinase inhibitors): < 0.1 µM; Angiogenesis inhibition (HUVECs; commercial kinase inhibitors): ++ (80% > angiogenesis inhibition ≥ 50%); IC50 (4T1 cells; commercial kinase inhibitors): 5 to 10 µM; Cytotoxicity (4T1 cells; commercial kinase inhibitors): ++ (50 % ≤ cytotoxicity < 85 %); IC50 (EoL-1 cells; commercial kinase inhibitors): 0.001 to 0.01 µM; Cytotoxicity (EoL-1 cells; commercial kinase inhibitors): +++ (cytotoxicity ≥ 85%); IC50 (MDA-MB-231 cells; commercial kinase inhibitors): 1 to 5 µM; Cytotoxicity (MDA-MB-231 cells; commercial kinase inhibitors): ++ (50 % ≤ cytotoxicity < 85 %)
9 | CC(C)(C)c1cc(NC(=O)Nc2ccc(Oc3ccnc4c3CCC(=O)N4)cc2C(F)(F)F)no1 [Compound 024, 1-(5-tert-butylisoxazol-3-yl)-3-[4-[(7-oxo-6,8-dihydro-5H-1,8-naphthyridin-4-yl)oxy]-2-(trifluoromethyl)phenyl]urea] | ++ (50% ≤ cytotoxicity < 85%) | ++ (50% ≤ cytotoxicity < 85%) | 1 to 5 µM | 1 to 5 µM | 0.1 to 0.5 µM | ++ (80% > angiogenesis inhibition ≥ 50%) | 1 to 5 µM | ++ (50% ≤ cytotoxicity < 85%) | 0.001 to 0.01 µM | +++ (cytotoxicity ≥ 85%) | 1 to 5 µM | ++ (50% ≤ cytotoxicity < 85%) | 
10 | CSc1cc(Oc2ccnc3c2OCC(=O)N3)ccc1NC(=O)Nc1cc(C(C)(C)C)nn1C [Compound 022, 1-(5-tert-butyl-2-methyl-pyrazol-3-yl)-3-[2-methylsulfanyl-4-[(3-oxo-4H-pyrido[3,2-b][1,4]oxazin-8-yl)oxy]phenyl]urea] | ++ (50% ≤ cytotoxicity < 85%) | ++ (50% ≤ cytotoxicity < 85%) | 1 to 5 µM | 1 to 5 µM | < 0.1 µM | ++ (80% > angiogenesis inhibition ≥ 50%) | 1 to 5 µM | +++ (cytotoxicity ≥ 85%) | < 0.001 µM | +++ (cytotoxicity ≥ 85%) | 1 to 5 µM | ++ (50% ≤ cytotoxicity < 85%) | 
